Measured values as given in US6387891B2, “COMPOUNDS WITH CHELATION AFFINITY AND SELECTIVITY FOR FIRST TRANSITION SERIES ELEMENTS AND THEIR USE IN COSMETICS AND PERSONAL CARE PRODUCTS, INHIBITION OF METALLOENZYMES, AND INHIBITION OF REPERFUSION INJURY” (Concat, Ltd., priority 2000, dated 2002).
Structures can show the parent of a compound that is named as a salt.

Columns and labels:
[1] = tested on: 57 human cancer cell lines; experiment: In vitro proliferation of 57 human cancer cell lines; format: cell-based; details: cell line groups compared
Method: The ability of N-methyl-N′,N″-bis(dihydroxyphorylmethyl)-1,4,7-triazacyclononane to inhibit proliferation of 57 human cancer cell lines in vitro was evaluated employing published methods as published in J. Natl. Cancer Inst., 83:757-766, 1991. The concentration of agent that caused 50% inhibition of cell replication relative to controls [Gl50] were determined. In one set of experiments the mean midpoint of Gl50 for all cell lines tested was (10)^−4.72 with a delta value of (10)^2.95 and a range of (10)^3.67.

[2] = Acute intravenous toxicity in mice; format: in vivo; details: mouse, in vivo, 4 mM/kg, intravenous
Method: (§1) This example illustrates the low in vivo toxicity of a representative ligand administer intravenously to mice.
(§2) This in vivo LD50 toxicity dose results in an instantaneous in vivo concentration which is orders of magnitude greater than the dose of this agent which inhibits mammalian cell replication in vitro (0.009 mM/L).

mice = experiment: Acute intravenous toxicity in mice; format: in vivo; details: 4.0 mM/kg single intravenous dose
Method: as §1, §2

monocyte = experiment: Monocyte penetration of Matrigel membranes; format: cell-based
Text: (§3) Matrix metalloproteinase-2 (MMP-2) secreted by cells into growth media was separated by gel electrophoresis into its distinct band. […] Concentrations of less than 10 microM of sodium salt of N,N′,N″-tri(dihydroxyphosphoryl methyl)-1,4,7-triazacyclononane inhibited monocyte penetration of Matrigel membranes.

pure MMP-2 enzyme = pure MMP-2 enzyme (Homo sapiens, UniProt P08253); experiment: Inhibition of pure MMP-2 enzyme; format: biochemical
underarm odor = experiment: Inhibition of underarm odor in human subjects; format: in vivo
Text: Human subjects applied a 30% aqueous solution of the neutral sodium salt of N,N′,N″-tri(dihydroxyphosphoryl methyl)-1,4,7-triazacyclononane in one axilla and a control aqueous solution in the other.

[3] = tested on: HFF cells (human foreskin fibroblasts); experiment: Inhibition of mammalian cell replication in vitro; format: cell-based
[4] = tested on: BGM cells (a continuous cell line of monkey origin); experiment: Inhibition of mammalian cell replication in vitro; format: cell-based
Method: Concentrations of this ligand of 0.009 mM/L inhibited the growth of both BGM cells (a continuous cell line of monkey origin) and HFF cells (human foreskin fibroblasts).

[5] = tested on: mature, nonreplicating cultures of HFF (human foreskin fibroblasts); experiment: Toxicity toward nonproliferating mammalian cells in vitro; format: cell-based; details: 0.3 mM, maintenance media, five-day period of observation
Sprague Dawley rats = experiment: Subacute toxicity, repeated intravenous doses in rats; format: in vivo; details: 0.05 millimoles per kg i.v. on 10 days
Text: Ten male Sprague Dawley rats 29 days old and weighing between 73.4 and 87.8 grams at the beginning of the experiment were randomized, employing the block stratification method, into two groups consisting of five rats each. On each of days 1, 2, 3, 6, 7, 8, 9, 10, 13 and 14 of the experiment one set of rats received an intravenous dose of N,N′,N″-tri(dihydroxyphosphoryl methyl)-1,4,7-triazacyclononane (Example 1C in U.S. Pat. No. 5,236,695) equal to 0.05 millimoles per kg of initial body weight (experimental group) while the other group received an equivalent volume of normal saline solution. The weights of the animals were recorded three times per week and the animals were sacrificed on the 28th day, major organs removed and weighed and tissues removed for microscopic examination.

[6] = Chemical antioxidant properties, coupled oxidation of carotene and linoleic acid; format: physicochemical
Method: Antioxidant properties of N,N′,N″-tri(dihydroxyphosphoryl methyl)-1,4,7-triazacyclononane were evaluated employing the coupled oxidation of carotene and linoleic acid, using the method described in “Phenolic Antioxidants of Dried Soybeans,” Hammerschmidt, P. A., Praat, D. E., 1978, Journal of Food Sciences, vol. 43, pp. 556-559.

Pseudomonas aeruginosa = experiment: Inhibition of bacterial replication in vitro (MIC); format: cell-based
Method: (§4) N,N′,N″-tris(dihydroxyphosphorylmethyl)-1,4,7-triazacyclononane was prepared as described in Example 1C in U.S. Pat. No. 5,236,695. Studies were performed to determine its ability to inhibit bacterial growth. For Streptococcus hemolyticus, Listeria monocytogenes, Enterobacter cloacae and Klebsiella pneumoniae the minimum inhibitory concentration was determined to be 0.15 mM/L. For Enterococcus fecalis, Pseudomonas aeruginosa and Acinobacter anitratus the minimum inhibitory concentration was determined to be 0.3 mM/L.

Listeria monocytogenes = experiment: Inhibition of bacterial replication in vitro (MIC); format: cell-based
Method: as §4

Enterobacter cloacae = experiment: Inhibition of bacterial replication in vitro (MIC); format: cell-based
Method: as §4

Enterococcus fecalis = experiment: Inhibition of bacterial replication in vitro (MIC); format: cell-based
Method: as §4

Klebsiella pneumoniae = experiment: Inhibition of bacterial replication in vitro (MIC); format: cell-based
Method: as §4

Acinobacter anitratus = experiment: Inhibition of bacterial replication in vitro (MIC); format: cell-based
Method: as §4

[7] = tested on: Streptococcus hemolyticus; experiment: Inhibition of bacterial replication in vitro (MIC); format: cell-based
Method: as §4

Streptococcus Sobrinus = experiment: Inhibition of cariogenic bacteria (MIC, RPMI medium); format: cell-based; details: read-out: minimum inhibitory concentration (MIC)
Microsporum canis = experiment: Inhibition of mycotic cell replication in vitro (MIC); format: cell-based
Method: (§5) N,N′,N″-tris(dihydroxyphosphorylmethyl)-1,4,7-triazacyclononane was prepared as described in Example 1C in U.S. Pat. No. 5,236,695. Studies were performed to determine its ability to inhibit growth of mycotic (fungal) organisms.
(§6) For Microsporum canis the minimum inhibitory concentration was 0.233 mM/L or less. For Candida albicans and Trichophyton rubrum the minimal inhibitory concentration was 2.33 mM/L. For Trichophyton mentagrophytes, Trichophyton tonsuras and Trichophyton violaceum the minimal inhibitory concentration was 23.3 mM/L.

Trichophyton rubrum = experiment: as above; format: cell-based
Method: as §5, §6

Candida albicans = experiment: as above; format: cell-based
Method: as §5, §6

Trichophyton violaceum = experiment: as above; format: cell-based
Method: as §5, §6

Trichophyton tonsuras = experiment: as above; format: cell-based
Method: as §5, §6

[8] = tested on: Trichophyton mentagrophytes; experiment: as above; format: cell-based
Method: as §5, §6

AIDS virus = experiment: Inhibition of AIDS virus replication (soluble-formazan assay for HIV-1 cytopathic effects); format: cell-based; details: Human immunodeficiency virus 1; read-out: EC50 (inhibition of the AIDS Virion)
Method: (§7) The antiviral efficacy of N,N′,N″-tris(5-t-butyl-2-hydroxy-benzyl)-1,4,7-triazacyclononane against the AIDS virus was evaluated employing published methodology (see, “New Soluble-Formazin Assay for HIV-1 Cytopathic Effects: Application to High Flux Screening of Synthetic and Natural Products for AIDS-Antiviral Activity,” J. Natl. Cancer Inst. 81:577-586, 1989).

[9] = Cytotoxicity study in AIDS antiviral screen (soluble-formazan assay); format: cell-based; details: human, T4 lymphocytes
Method: as §7

[10] = tested on: isolated working rat heart; experiment: Ischemic/reperfused isolated working rat heart model
Method: Using the ischemic/reperfused isolated working rat heart model of Ferdinandy et al., Cardiovasc. […] Concentrations of this agent as high as 7.2 mM had no adverse effects on the heart either before or after hypoxia/reperfusion injury.

[11] = target: T1, Matrix metalloproteinase-2 (MMP-2) secreted by cells (Homo sapiens, UniProt P08253); experiment: MMP-2 inhibition after gel electrophoresis, incubation in developing medium; format: biochemical; details: MMP-2 band after gel electrophoresis
T1 construct: Matrix metalloproteinase-2 (MMP-2) secreted by cells into growth media; endogenous in cells
Text: as §3

T1 sequence (P08253 110-660, species assumed): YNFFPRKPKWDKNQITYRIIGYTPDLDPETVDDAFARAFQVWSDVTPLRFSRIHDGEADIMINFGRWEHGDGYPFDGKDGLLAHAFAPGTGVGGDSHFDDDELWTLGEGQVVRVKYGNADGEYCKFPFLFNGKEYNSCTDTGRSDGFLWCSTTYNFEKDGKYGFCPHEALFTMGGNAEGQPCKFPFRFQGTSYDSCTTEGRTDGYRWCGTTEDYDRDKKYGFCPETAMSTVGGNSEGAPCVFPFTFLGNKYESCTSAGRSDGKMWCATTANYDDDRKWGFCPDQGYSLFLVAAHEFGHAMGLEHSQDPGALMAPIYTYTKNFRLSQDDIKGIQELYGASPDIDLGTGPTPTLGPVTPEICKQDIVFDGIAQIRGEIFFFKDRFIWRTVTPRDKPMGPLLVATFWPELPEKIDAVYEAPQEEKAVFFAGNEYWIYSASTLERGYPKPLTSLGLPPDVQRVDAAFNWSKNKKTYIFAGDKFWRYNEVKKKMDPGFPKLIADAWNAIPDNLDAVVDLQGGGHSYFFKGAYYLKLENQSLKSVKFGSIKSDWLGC
pure MMP-2 enzyme, sequence (P08253 110-660): as the sequence (P08253 110-660, species assumed) above

Compound: CN1CCN(CP(=O)(O)O)CCN(CP(=O)(O)O)CC1 [N-methyl-N′,N″-bis(dihydroxyphorylmethyl)-1,4,7-triazacyclononane]
- relative sensitivity of cancer cell groups [1]: leukemia and colon cancer cells were more sensitive to the agent than were other cancer cells

Compound: O=P(O)(O)CN1CCN(CP(=O)(O)O)CCN(CP(=O)(O)O)CC1 [sodium salt of N,N′,N″-tris-(dihydroxyphosphorylmethyl)-1,4,7-triazacyclononane]
- LD50 [2]: > 4000 µmol/kg
- mice surviving for over 14 days (mice): Over 50%
- concentration that inhibited monocyte penetration of Matrigel membranes (monocyte): less than 10 microM
- IC50 (pure MMP-2 enzyme): < 10 µM
- subjective evaluation of underarm odor (underarm odor; 30% aqueous solution in one axilla, control aqueous solution in the other): less underarm odor in the treated axilla than in the control
- duration of decreased underarm odor after a single application (underarm odor; 30% aqueous solution, single application): up to one week

Compound: CCOC(=O)CN1CCN(CC(=O)OCC)CCN(CC(=O)OCC)CC1 [Example 1.3.6.13, N,N′,N″-Tris(ethoxycarbonylmethyl)-1,4,7-triazacyclononane]
- concentration that inhibited HFF cell growth [3]: 0.16 mM/L
- concentration that inhibited BGM cell growth [4]: 0.04 mM/L

Compound: O=P(O)(O)CN1CCN(CP(=O)(O)O)CCN(CP(=O)(O)O)CC1 [N,N′,N″-tris(dihydroxyphosphorylmethyl)-1,4,7-triazacyclononane]
- concentration that inhibited HFF cell growth [3]: 0.009 mM/L
- effect on resting (nonreplicating) HFF cells [5]: no effect on the resting cells was observed
- weight or rate of weight gain vs control (Sprague Dawley rats; injection and two-week post-injection period): no statistically significant difference in weight or rate of weight gain
- microscopic examination of tissues vs control (Sprague Dawley rats; necropsy on 28th day): no differences between the tissues
- weights of major organs vs control (Sprague Dawley rats; sacrificed on 28th day): no differences observed between the weights of major organs
- concentration that inhibited BGM cell growth [4]: 0.009 mM/L
- antioxidant activity [6]: antioxidant activity similar to the commonly used food antioxidant butylated hdryoxyanisole (BHA)
- minimum inhibitory concentration (Pseudomonas aeruginosa): 0.3 mM/L
- minimum inhibitory concentration (Listeria monocytogenes): 0.15 mM/L
- minimum inhibitory concentration (Enterobacter cloacae): 0.15 mM/L
- minimum inhibitory concentration (Enterococcus fecalis): 0.3 mM/L
- minimum inhibitory concentration (Klebsiella pneumoniae): 0.15 mM/L
- minimum inhibitory concentration (Acinobacter anitratus): 0.3 mM/L
- minimum inhibitory concentration [7]: 0.15 mM/L
- MIC (Streptococcus Sobrinus): < 20 µM
- minimum inhibitory concentration (Microsporum canis): ≤ 0.233 mM/L
- minimal inhibitory concentration (Trichophyton rubrum): 2.33 mM/L
- minimal inhibitory concentration (Candida albicans): 2.33 mM/L
- minimal inhibitory concentration (Trichophyton violaceum): 23.3 mM/L
- minimal inhibitory concentration (Trichophyton tonsuras): 23.3 mM/L
- minimal inhibitory concentration [8]: 23.3 mM/L

Compound: CC(C)(C)c1ccc(O)c(CN2CCN(Cc3cc(C(C)(C)C)ccc3O)CCN(Cc3cc(C(C)(C)C)ccc3O)CC2)c1 [N,N′,N″-tris(5-t-butyl-2-hydroxy-benzyl)-1,4,7-triazacyclononane]
- EC50 (AIDS virus): 3 µM
- IC50 [9]: 110 µM

Compound: O=C(O)CN(CCN(CC(=O)O)CC(=O)O)CCN(CC(=O)O)CC(=O)O [Diethylene triamine penta acetic acid, reference compound]
- concentration that inhibited HFF cell growth [3]: 0.3 mM/L
- concentration that inhibited BGM cell growth [4]: 0.075 mM/L

Compound: salts of N,N′,N″-tri(dihydroxyphosphoryl methyl)-1,4,7-triazacyclononane
- concentration with no adverse effects on the heart ([10]; before or after hypoxia/reperfusion injury): ≥ 7200 µM
- concentration in the perfusing medium effective in improving myocardial functional parameters and decreasing the incidence of ventricular fibrillation ([10]; ischemic/reperfused isolated working rat heart): ≤ 0.1 mM
- concentration that inhibited enzymatic action of MMP-2 [11]: less than 10 microM

Compound: O=C(O)CN1CCN(CC(=O)O)CCN(CC(=O)O)CC1 [Example 1.3.6.1, N,N′,N″-Tris(carboxymethyl)-1,4,7-triazacyclononane]
- concentration that inhibited HFF cell growth [3]: 0.019 mM/L
- concentration that inhibited BGM cell growth [4]: 0.009 mM/L
